In general, EC50 refers to the midpoint of the concentration-response curve.

The source of these data is PMC7244133, “Identification of potential dual -targets anti- toxoplasma gondii compounds through structure-based virtual screening and in-vitro studies” (PLoS ONE, 2020).

In brackets after ≈: the same amount, converted by molar mass. Several values for one entry are separate records, joined by “and”; a condition that tells them apart may be missing. Equal values may be shown once. Read-outs that look alike come from different tables or passages of the source.

For test [1], the system named is Vero cells. The test can be described thus: Cytotoxicity effect on Vero cells (MTS-PMS assay). It counts as cell-based, African green monkey. The settings on record: Chlorocebus sabaeus, read-out: EC50 against Vero cells. On the procedure: Vero cells were harvested by trypsinization when it reached 80–90% confluence. A volume of 100 μl Vero cells (6 x 10^4 cells/ml) in GM was cultured in triplicate wells of a 96-well plate and incubated for 24 hours.
MTS solution was prepared (2 mg/ml) by dissolving the powder in PBS. Exposure to light was avoided during the preparation. PMS (0.92 mg/ml) was similarly prepared in PBS and both solutions were stored at -20 °C. A volume of 20 μl of MTS solution was added into each well and the cells were incubated for one hour in a CO2 incubator [23, 24]. The absorbance (abs) was then measured at 490 nm using a microplate reader (Thermo Scientific Multiskan®Spectrum, USA). The percentage of cell viability was calculated using the following formula [25, 26]. The graphs were plotted and analyses their statistical data using Prism 5.0 (GraphPad Software Inc., CA USA) (S1 Dataset and S3 Dataset).
%ofcellviability=Opticaldensity(OD)oftreatedcell/Opticaldensity(OD)ofuntreatedcell(cellonly)
In general terms: Tetrazolium assays rely on reduction of a dye to a coloured formazan, in cell work by metabolically active cells.

Test [2] relates to T. gondii tachyzoites RH strain. The experiment in a line: Treatment of T. gondii-infected Vero cells (MTS-PMS assay). It counts as cell-based, Toxoplasma gondii. Conditions: for EC50: Toxoplasma gondii, read-out: EC50 against T. gondii; for Selectivity Index (SI): Vero Cell (EC50)/T. gondii EC50. The method, then:
Vero cells were harvested by trypsinization when it reached 80–90% confluence. A volume of 100 μl diluted Vero cells of (6 x 10^4 cells/ml) in GM was cultured in triplicate wells of a 96-well plate and incubated for 24 hours. Then, 100 μl of tachyzoites (3 x 10^5 /ml) in GM2 (comprising DMEM, 0.5% PS and 2% FBS) were added into the Vero cell-seeded wells. A volume of 100 ul the above medium was added to the negative control well and the plate was incubated for six hours. Subsequently, the wells were washed twice with WM to remove non-adherent parasites. A volume of 100 μl of GM2 was added and again incubated for 18 hours. […] The negative control well contained 100 μl Vero cells and PBS in control wells for NCI compounds.
The percent cell viability was proportional to the mortality of T. gondii. The graphs were plotted and analyses their statistical data using Prism 5.0 (GraphPad Software Inc., CA USA) (S2 Dataset and S4 Dataset). […] Selectivity refers to the mean of the EC50 value for Vero cells relative to the mean of the EC50 value of the T. gondii. A P value of less than 0.05 was considered statistically significant and all data points represent the mean of three independent experiments. SI (selectivity index) measures the strength of inhibition against the Vero cells and the T. gondii.
SelectivityIndex(SI)=VeroCell(EC50)/T.gondiiEC50

[3] abbreviates: T. gondii-infected Vero cells, 24 hours treatment, MTS-PMS, molar value in brackets.
[4] abbreviates: T. gondii-infected Vero cells, 24 hours treatment, MTS-PMS.

Consider `O=c1[nH]cc(F)c(=O)[nH]1` [5-Fluorouracil, 5-fluorouracil, reference compound], for which the EC50 in test [1] (24 hours treatment, MTS-PMS) amounted to 9.72 µg/mL (≈ 74.7 µM).
With `NCCN1CCNCC1` [NSC38968, 2-(piperazin-1-yl)ethan-1-amine], the EC50 amounted to 37 µM in test [2] (setting [3]); 4.82 µg/mL in test [2] (setting [4]); 21.5 µg/mL (≈ 166 µM) in test [1] (24 hours treatment, MTS-PMS). Moreover, the “Selectivity Index (SI)” value in test [2] was found to be 4.5.
As for `CCOC1CCc2c(C)nc(N)nc2S1` (stereo not shown) [NSC77468, 7-ethoxy-4-methyl-6,7-dihydro-5H-thiopyrano[2,3-d]pyrimidin-2-amine], the EC50 was 8.5 µM in test [2] (setting [3]); 1.92 µg/mL in test [2] (setting [4]); 47.8 µg/mL (≈ 212 µM) in test [1] (24 hours treatment, MTS-PMS). Besides, in test [2], the “Selectivity Index (SI)” value is recorded as 25.
In the case of `NS(=O)(=O)c1ccc(Cl)cc1[N+](=O)[O-]` [NSC81213, 4-chloro-2-nitrobenzene-1-sulfonamide], the EC50 was 20 µM in test [2] (setting [3]); 4.75 µg/mL in test [2] (setting [4]); 24.6 µg/mL (≈ 104 µM) in test [1] (24 hours treatment, MTS-PMS). Also, in test [2], the “Selectivity Index (SI)” value worked out at 5.2.
Turning to `C1CC2CCNC3CCNC(C1)N23` (stereo not shown) [NSC81462, dodecahydro-1,4,9b-triazaphenalene], the EC50 in test [2] (Vero, 24 h) is 3.24 µg/mL and 17.8 µM; in test [1] (24 h), 39 µg/mL (≈ 215 µM). Moreover, the “Selectivity Index (SI)” value in test [2] turned out to be 12.0.
`CC1=C(C(N)=O)S(=O)(=O)c2ccccc21` [NSC108972, 3-methyl-1,1-dioxo-1 H -1-benzothiophene-2-carboxamide]: the concentration for a half-maximal effect (EC50) in test [2] (setting [3]) was 32 µM; in test [2] (setting [4]), 7.17 µg/mL; in test [1] (24 hours treatment, MTS-PMS), 28 µg/mL (≈ 126 µM). Besides, in test [2], the “Selectivity Index (SI)” value stood at 3.9.
Turning to `COc1ccccc1N1C(=O)CC(Sc2cccc(N)c2)C1=O` (stereo not shown) [NSC153391, 3-[(3-aminophenyl)sulfanyl]-1-(2-methoxyphenyl)pyrrolidine-2,5-dione], in test [2] (setting [4]), the “EC50 against T. gondii” value is “Inactive”. Moreover, the EC50 in test [1] (24 hours treatment, MTS-PMS) turned out to be 24.7 µg/mL (≈ 75.3 µM).
On to `Nc1ccc(C(=O)c2cccs2)cn1` [NSC343344, (6-aminopyridin-3-yl)(thiophen-2-yl)methanone], for which the “EC50 against T. gondii” value in test [2] (setting [4]) is given as “Inactive”. Besides, the EC50 in test [1] (24 h) is 29.6 µg/mL (≈ 145 µM).
With `Nc1cc(Cl)ccc1N1C(=O)CCC1=O` [NSC660301, 1-(2-amino-4-chlorophenyl)pyrrolidine-2,5-dione], the half-maximal effective concentration (EC50) came to 15 µM in test [2] (setting [3]); 3.43 µg/mL in test [2] (setting [4]); 22.3 µg/mL (≈ 99.2 µM) in test [1] (24 hours treatment, MTS-PMS). In addition, the “Selectivity Index (SI)” value in test [2] was 6.5.
